Converted amounts (≈) assume the structure as drawn. Values belong to the compound of their own block, whether it stands above or below them.
Tests used:
[1] = Inhibition of Wnt pathway (unknown origin); parameters: species or system Homo sapiens
[2] = Plasma concentration in mouse at 5 mg/kg, po measured after 24 hr; type: ADME, organism-based
[3] = molecular target: Catenin beta-1/Transcription factor 7 (Homo sapiens, UniProt P35222+P36402); assay: Inhibition of beta catenin/TCF (unknown origin) by immunoprecipitation method; type: protein assay
[4] = Inhibition of TBC (unknown origin); parameters: species or system Homo sapiens
[5] = Half life of compound in PBS buffer; type: physicochemical
[6] = tested on: HeLa; assay: Antiproliferative activity against human HeLa cell line assessed as cell growth inhibition; type: functional, cell-based
[7] = molecular target: T1, Poly [ADP-ribose] polymerase tankyrase-1 (Homo sapiens, UniProt O95271); assay: Inhibition of TNKS1 (unknown origin)
T1 sequence (O95271 whole entry): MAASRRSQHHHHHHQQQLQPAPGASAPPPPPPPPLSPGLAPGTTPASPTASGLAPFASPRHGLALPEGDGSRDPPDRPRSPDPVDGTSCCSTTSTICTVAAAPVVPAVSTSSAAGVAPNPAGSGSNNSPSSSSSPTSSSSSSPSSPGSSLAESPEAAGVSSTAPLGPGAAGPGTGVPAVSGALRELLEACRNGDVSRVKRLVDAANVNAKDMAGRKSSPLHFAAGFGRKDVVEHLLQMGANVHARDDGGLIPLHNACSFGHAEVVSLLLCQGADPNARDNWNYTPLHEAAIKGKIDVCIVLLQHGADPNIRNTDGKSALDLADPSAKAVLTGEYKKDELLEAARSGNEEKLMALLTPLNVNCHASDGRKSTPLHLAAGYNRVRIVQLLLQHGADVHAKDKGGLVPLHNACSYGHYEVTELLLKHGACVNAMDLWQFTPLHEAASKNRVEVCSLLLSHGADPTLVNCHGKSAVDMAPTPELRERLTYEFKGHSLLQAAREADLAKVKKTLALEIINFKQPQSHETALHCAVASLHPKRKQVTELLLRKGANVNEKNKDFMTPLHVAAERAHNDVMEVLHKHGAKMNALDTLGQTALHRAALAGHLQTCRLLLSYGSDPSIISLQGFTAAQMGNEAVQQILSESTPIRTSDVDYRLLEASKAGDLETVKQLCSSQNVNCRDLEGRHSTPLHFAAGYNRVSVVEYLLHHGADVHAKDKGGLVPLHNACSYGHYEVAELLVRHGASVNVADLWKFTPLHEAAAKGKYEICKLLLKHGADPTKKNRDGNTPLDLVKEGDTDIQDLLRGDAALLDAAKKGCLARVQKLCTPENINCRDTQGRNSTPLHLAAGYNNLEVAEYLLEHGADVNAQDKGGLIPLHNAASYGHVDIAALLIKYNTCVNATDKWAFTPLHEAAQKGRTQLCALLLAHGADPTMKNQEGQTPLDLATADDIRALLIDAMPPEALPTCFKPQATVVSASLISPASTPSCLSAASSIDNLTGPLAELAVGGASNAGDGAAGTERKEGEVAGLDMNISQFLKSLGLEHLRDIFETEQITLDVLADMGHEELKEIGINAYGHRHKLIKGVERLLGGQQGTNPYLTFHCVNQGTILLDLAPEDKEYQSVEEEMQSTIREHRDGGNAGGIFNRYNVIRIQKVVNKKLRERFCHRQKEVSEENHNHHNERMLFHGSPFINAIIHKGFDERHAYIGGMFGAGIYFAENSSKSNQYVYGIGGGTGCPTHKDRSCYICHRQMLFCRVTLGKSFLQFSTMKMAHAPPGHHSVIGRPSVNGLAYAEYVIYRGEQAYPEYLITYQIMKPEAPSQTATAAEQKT

[8] = cells; conditions: Homo sapiens, COLO 320DM
[9] = molecular target: T2, Poly [ADP-ribose] polymerase tankyrase-2 (Homo sapiens, UniProt Q9H2K2); assay: Inhibition of human TNKS2 (873 to 1162 residues) measured after 15 hrs in presence of NAD+ by fluorescence assay
T2 sequence (Q9H2K2 whole entry): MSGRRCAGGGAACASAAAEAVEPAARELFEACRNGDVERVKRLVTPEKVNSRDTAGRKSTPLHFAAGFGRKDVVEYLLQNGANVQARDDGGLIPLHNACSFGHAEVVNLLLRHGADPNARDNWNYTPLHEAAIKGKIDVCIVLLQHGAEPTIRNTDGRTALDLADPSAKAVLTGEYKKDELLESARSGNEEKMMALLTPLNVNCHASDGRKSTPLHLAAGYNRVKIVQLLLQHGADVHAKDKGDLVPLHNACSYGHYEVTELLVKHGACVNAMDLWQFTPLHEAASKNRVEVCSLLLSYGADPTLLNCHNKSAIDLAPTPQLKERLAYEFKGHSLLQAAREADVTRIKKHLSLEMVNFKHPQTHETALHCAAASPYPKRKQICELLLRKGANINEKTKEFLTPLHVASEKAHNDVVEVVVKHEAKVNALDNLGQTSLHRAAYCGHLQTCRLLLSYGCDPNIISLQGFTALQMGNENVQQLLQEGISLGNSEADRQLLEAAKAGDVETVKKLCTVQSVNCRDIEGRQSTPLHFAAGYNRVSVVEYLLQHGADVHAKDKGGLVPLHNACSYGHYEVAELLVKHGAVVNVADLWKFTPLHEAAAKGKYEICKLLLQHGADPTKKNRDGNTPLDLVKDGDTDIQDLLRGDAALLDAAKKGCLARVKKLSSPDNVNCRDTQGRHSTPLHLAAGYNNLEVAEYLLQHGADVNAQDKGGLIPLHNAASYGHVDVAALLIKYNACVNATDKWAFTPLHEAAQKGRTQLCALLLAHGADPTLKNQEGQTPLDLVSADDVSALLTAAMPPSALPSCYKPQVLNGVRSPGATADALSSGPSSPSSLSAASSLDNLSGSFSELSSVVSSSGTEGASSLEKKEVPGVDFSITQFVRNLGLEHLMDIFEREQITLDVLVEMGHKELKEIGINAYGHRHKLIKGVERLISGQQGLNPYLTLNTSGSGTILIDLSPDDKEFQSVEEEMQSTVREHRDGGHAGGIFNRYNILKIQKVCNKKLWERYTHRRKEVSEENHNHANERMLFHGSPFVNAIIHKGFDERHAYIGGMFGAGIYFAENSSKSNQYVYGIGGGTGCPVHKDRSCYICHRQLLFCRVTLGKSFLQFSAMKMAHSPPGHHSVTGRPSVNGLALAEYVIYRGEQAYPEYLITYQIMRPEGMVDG

[10] = molecular target: T1, Poly [ADP-ribose] polymerase tankyrase-1; assay: Inhibition of human TNKS1 (1030 to 1317 residues) measured after 20 hrs
[11] = Chemical stability of the compound at pH 7.4 measured after 24 hrs; type: physicochemical; conditions: buffer, read-out: Stability
[12] = molecular target: T2, Poly [ADP-ribose] polymerase tankyrase-2; assay: Inhibition of TNKS2 (unknown origin)
[13] = molecular target: Poly [ADP-ribose] polymerase 1 (Homo sapiens, UniProt P09874); assay: Inhibition of human recombinant PARP1 incubated for 30 mins in the presence of NAD
[14] = molecular target: Poly [ADP-ribose] polymerase 2 (Homo sapiens, UniProt Q9UGN5); assay: Inhibition of PARP2 (unknown origin) using NAD as substrate incubated for 1 min
[15] = Solubility of the compound at pH 7.4; type: physicochemical; conditions: buffer
[16] = Oral bioavailability in mouse at 2.5 mg/kg; type: ADME, organism-based; conditions: in vivo

Sequence of Poly [ADP-ribose] polymerase 2 (Q9UGN5 whole entry): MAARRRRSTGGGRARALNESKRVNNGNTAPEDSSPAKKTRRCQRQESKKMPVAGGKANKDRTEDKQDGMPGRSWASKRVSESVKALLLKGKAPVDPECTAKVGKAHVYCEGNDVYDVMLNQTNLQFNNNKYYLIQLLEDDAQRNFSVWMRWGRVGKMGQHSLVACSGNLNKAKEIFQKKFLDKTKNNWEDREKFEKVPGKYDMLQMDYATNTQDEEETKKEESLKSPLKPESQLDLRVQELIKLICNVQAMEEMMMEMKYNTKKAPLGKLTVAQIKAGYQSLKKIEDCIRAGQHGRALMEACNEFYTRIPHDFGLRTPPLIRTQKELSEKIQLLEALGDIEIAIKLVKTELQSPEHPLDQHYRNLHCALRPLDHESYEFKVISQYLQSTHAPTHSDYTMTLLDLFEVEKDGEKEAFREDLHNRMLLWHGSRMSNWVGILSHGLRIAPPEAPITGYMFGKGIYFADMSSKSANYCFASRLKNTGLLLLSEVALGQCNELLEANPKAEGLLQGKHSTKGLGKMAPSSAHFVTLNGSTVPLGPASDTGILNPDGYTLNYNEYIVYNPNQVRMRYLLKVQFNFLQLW
Sequence of Poly [ADP-ribose] polymerase 1 (P09874 whole entry): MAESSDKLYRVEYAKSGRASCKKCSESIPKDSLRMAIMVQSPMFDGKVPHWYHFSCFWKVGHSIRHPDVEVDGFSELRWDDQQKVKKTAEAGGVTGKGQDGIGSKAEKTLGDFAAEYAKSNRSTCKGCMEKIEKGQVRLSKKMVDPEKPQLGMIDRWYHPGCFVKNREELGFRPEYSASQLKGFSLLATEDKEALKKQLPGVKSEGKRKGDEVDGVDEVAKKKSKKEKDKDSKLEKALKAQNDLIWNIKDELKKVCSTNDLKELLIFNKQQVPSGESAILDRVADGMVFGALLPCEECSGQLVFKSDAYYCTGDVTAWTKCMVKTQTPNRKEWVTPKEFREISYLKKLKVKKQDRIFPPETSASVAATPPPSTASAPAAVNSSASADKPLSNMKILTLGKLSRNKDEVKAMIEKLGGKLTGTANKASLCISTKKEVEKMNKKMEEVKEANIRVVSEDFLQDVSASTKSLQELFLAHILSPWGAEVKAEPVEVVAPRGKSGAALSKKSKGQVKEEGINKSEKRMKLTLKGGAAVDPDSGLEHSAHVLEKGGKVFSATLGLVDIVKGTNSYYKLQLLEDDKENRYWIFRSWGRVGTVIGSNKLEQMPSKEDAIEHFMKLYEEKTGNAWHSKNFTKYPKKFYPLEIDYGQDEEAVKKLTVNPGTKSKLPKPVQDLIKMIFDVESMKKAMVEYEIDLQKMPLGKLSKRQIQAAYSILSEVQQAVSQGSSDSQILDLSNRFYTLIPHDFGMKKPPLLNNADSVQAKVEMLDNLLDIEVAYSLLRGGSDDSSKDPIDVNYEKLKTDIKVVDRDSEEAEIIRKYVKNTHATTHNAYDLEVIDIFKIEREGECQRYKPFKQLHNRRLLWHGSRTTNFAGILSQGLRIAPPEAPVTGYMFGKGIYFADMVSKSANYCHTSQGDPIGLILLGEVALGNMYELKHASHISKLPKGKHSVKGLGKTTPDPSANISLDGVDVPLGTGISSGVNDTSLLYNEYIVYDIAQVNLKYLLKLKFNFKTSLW
Sequence of Catenin beta-1/Transcription factor 7 (P36402 whole entry): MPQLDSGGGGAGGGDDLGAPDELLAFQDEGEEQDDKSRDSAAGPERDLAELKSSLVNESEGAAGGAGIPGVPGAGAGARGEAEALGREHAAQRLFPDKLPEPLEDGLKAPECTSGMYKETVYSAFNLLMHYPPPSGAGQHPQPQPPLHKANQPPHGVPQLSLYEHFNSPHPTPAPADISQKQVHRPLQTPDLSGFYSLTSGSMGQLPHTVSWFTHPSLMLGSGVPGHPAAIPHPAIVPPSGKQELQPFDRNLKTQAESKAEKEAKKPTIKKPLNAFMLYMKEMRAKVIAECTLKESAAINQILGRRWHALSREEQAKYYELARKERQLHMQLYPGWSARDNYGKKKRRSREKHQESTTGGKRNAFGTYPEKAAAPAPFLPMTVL
Sequence of Catenin beta-1/Transcription factor 7 (P35222 whole entry): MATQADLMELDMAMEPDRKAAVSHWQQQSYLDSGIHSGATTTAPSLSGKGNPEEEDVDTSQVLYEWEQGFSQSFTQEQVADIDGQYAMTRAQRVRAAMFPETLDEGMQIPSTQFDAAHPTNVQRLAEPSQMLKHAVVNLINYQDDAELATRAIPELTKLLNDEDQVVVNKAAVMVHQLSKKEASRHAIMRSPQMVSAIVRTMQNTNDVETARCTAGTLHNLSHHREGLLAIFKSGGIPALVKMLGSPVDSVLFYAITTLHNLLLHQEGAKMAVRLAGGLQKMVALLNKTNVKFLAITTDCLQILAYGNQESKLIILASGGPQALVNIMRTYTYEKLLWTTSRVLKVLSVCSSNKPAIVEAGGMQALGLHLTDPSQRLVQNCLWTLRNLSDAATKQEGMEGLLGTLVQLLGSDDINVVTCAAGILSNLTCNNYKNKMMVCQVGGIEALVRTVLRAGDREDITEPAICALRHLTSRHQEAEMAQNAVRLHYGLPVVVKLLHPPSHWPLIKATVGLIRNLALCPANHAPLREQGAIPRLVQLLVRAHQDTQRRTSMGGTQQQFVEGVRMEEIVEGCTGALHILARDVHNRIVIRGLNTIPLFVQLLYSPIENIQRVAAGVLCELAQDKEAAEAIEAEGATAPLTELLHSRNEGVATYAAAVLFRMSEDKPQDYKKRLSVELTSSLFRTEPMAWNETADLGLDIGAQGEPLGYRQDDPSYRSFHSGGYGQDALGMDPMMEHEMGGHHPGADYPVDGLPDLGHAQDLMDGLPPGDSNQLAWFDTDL

concentration at 24 h [2]: 1 nM | IC50 [1]: 0.074 nM
Structure (SMILES): Cc1cc(-c2ccc(CC(=O)Nc3ccc(-c4cccnc4)cc3)cc2)ccn1

EC50 [6]: 0.5 nM
Structure (SMILES): O=C(CSc1nc2c(c(=O)n1-c1ccccc1)SCC2)Nc1ccc(-c2ccccc2)cn1

remaining at 24 h [11]: 71% | IC50 [1]: 0.11 nM
Structure (SMILES): Cc1cc(-c2ccc(OC(C)C(=O)Nc3ccc(-c4cnccn4)cn3)cc2)ccn1 (stereo not given)

IC50 [1]: 2.3 nM
Structure (SMILES): Cc1cc(-c2ccc(CC(=O)Nc3ccc4c(c3)[nH]c3ccccc34)cc2)ccn1

IC50 [13]: > 10000 nM | IC50 [14]: > 10000 nM | IC50 [9]: 5.1 nM | IC50 [10]: 30 nM
Structure (SMILES): COc1cccc2c(=O)[nH]c(-c3ccc(C)cc3)cc12

solubility [15]: 60 µg/mL (≈ 148 µM) | bioavailability [16]: 81%
Structure (SMILES): O=C(CN1CCCC2=C1C(=O)N(C1CC1)C2=O)Nc1ccc(-c2cccnc2)nn1

solubility [15]: 73 µg/mL (≈ 183 µM) | bioavailability [16]: 100%
Structure (SMILES): C[C@H](Nc1ccc(-c2ccnn2C)nc1)C(=O)Nc1ccc(-c2cccnc2)cn1

Continued, compound first:

Structure (SMILES): Cc1ccc2nc(NC(=O)CSc3nc4c(c(=O)n3-c3ccccc3)SCC4)sc2c1
IC50 [1]: 27 nM

Structure (SMILES): O=C1[C@H](Cc2ccc(O)cc2)N2C(=O)CCN(C(=O)NCc3ccccc3)[C@H]2CN1Cc1cccc2ccccc12
IC50 [3]: 3000 nM

Structure (SMILES): COc1ccccc1NC(=O)c1ccc(NC(=O)CCc2nc3ccccc3c(=O)[nH]2)cc1
IC50 [4]: 160 nM | half-life [5]: 40 min

Structure (SMILES): O=C(CCC1CCCC1)Nc1nnc2n1CCS2
IC50 [7]: 1900 nM

Structure (SMILES): Nc1nonc1NC(=O)Cn1c2ccccc2c2nc3nonc3nc21
IC50 [8]: 31000 nM

Structure (SMILES): O=C(O)CCCn1c2ccccc2c2nc3nonc3nc21
IC50 [8]: 15000 nM

Structure (SMILES): CN1CCCc2c1cc(-c1ccc(Br)cc1)[nH]c2=O
IC50 [9]: 6.1 nM | IC50 [10]: 423 nM

Structure (SMILES): COc1ccc(C2(CNC(=O)c3ccc(NC(=O)c4ccco4)cc3)CCOCC2)cc1
IC50 [12]: 830 nM

Structure (SMILES): CN1C(=O)C2=C(C1=O)N(CC(=O)Nc1ccc(-c3nccs3)cc1)CCC2
solubility [15]: 15 µg/mL (≈ 39.2 µM)

— ChEMBL document CHEMBL5226302, “Small-Molecule Inhibitors Targeting the Canonical WNT Signaling Pathway for the Treatment of Cancer” (J Med Chem, 2021)
